Test results taken from patent publication EP4813403A1, “USE OF GLP-1R/GIPR DOUBLE-TARGET AGONIST IN PREPARING ANIMAL DRUG” (Hangzhou Zhongmeihuadong Pharmaceutical Co., Ltd., priority 2023, dated 2025).

Columns and labels:
dog GIPR = target: T1, dog GIPR (Canis lupus familiaris, UniProt A0A8I3MPG1); experiment: Agonistic activity on GIPR of different species (LANCE Ultra cAMP assay): dog; assay type: cell-based; conditions: ratio of EC50 value of other species to human EC50 value
T1 construct: expressed in transfected cells; host or cells: CHO-K1 (transient)
T1 sequence (A0A8I3MPG1 24-449): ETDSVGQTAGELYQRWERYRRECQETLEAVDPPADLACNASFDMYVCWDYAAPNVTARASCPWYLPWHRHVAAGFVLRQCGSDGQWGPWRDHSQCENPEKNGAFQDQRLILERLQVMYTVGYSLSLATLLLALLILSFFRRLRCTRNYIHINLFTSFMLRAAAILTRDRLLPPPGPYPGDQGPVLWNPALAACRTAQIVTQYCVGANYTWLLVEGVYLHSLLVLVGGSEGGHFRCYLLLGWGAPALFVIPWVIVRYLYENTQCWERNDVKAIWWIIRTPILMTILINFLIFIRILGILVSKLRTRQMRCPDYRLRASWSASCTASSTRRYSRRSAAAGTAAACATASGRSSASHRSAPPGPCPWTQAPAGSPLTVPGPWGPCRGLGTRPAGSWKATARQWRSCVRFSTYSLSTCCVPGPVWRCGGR
Experimental: (§1) CHO-K1 cells were seeded in a 6-well plate at 0.6×10^6 cells/well and incubated overnight in an incubator at a temperature of 37 °C and a carbon dioxide concentration of 5%. The next day, CHO-K1 cell media were replaced. Then two tubes A and B were prepared for each plasmid. 100 µL Opti-MEM was added to tube A, then 4 µL Lipofectamine™ 3000 was added and mixed uniformly. 100 µL Opti-MEM was firstly added to tube B, then 2 µg of one of the plasmids (human GIPR-pcDNA5 (+) plasmid, dog GIPR-pcDNA5 (+) plasmid, mouse GIPR-pcDNA5 (+) plasmid, rat GIPR-pcDNA5 (+) plasmid, rabbit GIPR-pcDNA5 (+) plasmid, monkey GIPR-pcDNA5 (+) plasmid) was added and mixed uniformly, and 4 µL P3000™ was added to tube B and mixed uniformly (the ratio of plasmid to transfection reagent was 1 µg: 2 µL). […]
(§2) 18-20 hours after transfection, human GIPR-CHO, dog GIPR-CHO, mouse GIPR-CHO, rat GIPR-CHO, rabbit GIPR-CHO, and monkey GIPR-CHO cells were resuspended in 1×Casein Stimulation Buffer (HBSS, 5 mM HEPES, 0.5 mM IBMX, 0.1% casein, pH7.4), and seeded into a 384-well cell culture plate at 9 µL/well (cell numbers being 1000, 2000, 2000, 2000, 2000, 2000 cells/well, respectively). […] The readings at 665 nm and 620 nm were determined with a 330 nm excitation light on a microplate reader. The 665 nm/620 nm reading ratio was calculated. […]

human GIPR = target: T2, human GIPR (Homo sapiens, UniProt P48546); experiment: Agonistic activity on GIPR of different species (LANCE Ultra cAMP assay): human; assay type: cell-based; conditions: ratio of EC50 value of other species to human EC50 value
T2 construct: expressed in transfected cells
T2 sequence (P48546 22-466): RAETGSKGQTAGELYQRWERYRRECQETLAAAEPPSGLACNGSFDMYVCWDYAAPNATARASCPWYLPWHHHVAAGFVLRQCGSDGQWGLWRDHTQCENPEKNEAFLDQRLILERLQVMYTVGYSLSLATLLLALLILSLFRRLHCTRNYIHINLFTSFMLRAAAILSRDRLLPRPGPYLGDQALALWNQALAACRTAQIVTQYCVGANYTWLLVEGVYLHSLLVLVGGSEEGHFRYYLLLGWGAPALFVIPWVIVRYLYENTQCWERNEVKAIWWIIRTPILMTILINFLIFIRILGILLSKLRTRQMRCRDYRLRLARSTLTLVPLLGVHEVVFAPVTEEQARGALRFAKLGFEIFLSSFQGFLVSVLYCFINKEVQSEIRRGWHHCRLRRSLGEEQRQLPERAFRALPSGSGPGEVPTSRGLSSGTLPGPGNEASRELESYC
Experimental: as §1, §2

CC[C@H](C)[C@H](NC(=O)C(C)(C)NC(=O)[C@H](Cc1ccc(O)cc1)NC(=O)[C@H](CC(=O)O)NC(=O)[C@H](CO)NC(=O)[C@@H](NC(=O)C(C)(Cc1ccccc1)NC(=O)[C@@H](NC(=O)CNC(=O)[C@H](CCC(=O)O)NC(=O)C(C)(C)NC(=O)[C@@H](N)Cc1ccc(O)cc1)[C@@H](C)O)[C@@H](C)O)C(=O)NC(C)(C)C(=O)N[C@@H](CC(C)C)C(=O)N[C@@H](CC(=O)O)C(=O)N[C@@H](CCCCN)C(=O)N[C@@H](CCC(N)=O)C(=O)N[C@@H](C)C(=O)N[C@@H](CCC(N)=O)C(=O)N[C@@H](C)C(=O)N[C@@H](CCC(=O)O)C(=O)N[C@@H](Cc1ccccc1)C(=O)N[C@H](C(=O)N[C@@H](CCCCNC(=O)COCCOCCNC(=O)COCCOCCNC(=O)COCCOCCNC(=O)CC[C@H](NC(=O)CCCCCCCCCCCCCCCCCCCCC(=O)O)C(=O)O)C(=O)N[C@@H](Cc1c[nH]c2ccccc12)C(=O)N[C@@H](CC(C)C)C(=O)N[C@@H](CC(C)C)C(=O)N[C@@H](CCCCN)C(=O)NCC(=O)NCC(=O)N1CCC[C@H]1C(=O)N[C@@H](CO)C(=O)N[C@@H](CO)C(=O)NCC(=O)N[C@@H](C)C(=O)N1CCC[C@H]1C(=O)N1CCC[C@H]1C(=O)N1CCC[C@H]1C(=O)N[C@@H](CO)C(=O)N[C@@H](CCCCN)C(N)=O)C(C)C (some centres unmarked) [Compound P016]
GIPR EC50 ratio (dog GIPR): 2.88 | GIPR EC50 ratio (human GIPR): 1.00
